Measurements taken from PubChem BioAssay AID252 (DTP/NCI, 2004).
Where “and” joins values, the source holds several entries; their conditions need not be identical. Identical values can stand only once. Inconclusive results and toxic doses are left out.

Test system: BDF1 mice, intracerebral L1210 leukemia, survival T/C
Assay: NCI In Vivo Anticancer Drug Screen. Data for tumor model L1210 Leukemia (intracerebral) in B6D2F1 (BDF1) mice
Conditions: higher = longer survival
Procedure, shortened: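 Mice carrying transplanted tumour were dosed with compound; survival was recorded and expressed as treated-group value (T) divided by vehicle-control value (C).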

`C#CCOCC(CCl)OC(=O)Nc1ccccc1` (stereo not drawn) was tested, and the T/C (endpoint: mean survival time, dose: 25.0 mg/kg/injection, schedule: Q04DX003 (ip), vehicle: saline with Tween-80) was 100 % of control, the T/C (endpoint: mean survival time, dose: 50.0 mg/kg/injection, schedule: Q04DX003 (ip), vehicle: saline with Tween-80) was 115 % of control and the T/C (endpoint: mean survival time, dose: 100.0 mg/kg/injection, schedule: Q04DX003 (ip), vehicle: saline with Tween-80) was 105 % of control. For the same compound, the T/C (endpoint: mean survival time, dose: 200.0 mg/kg/injection, schedule: Q04DX003 (ip), vehicle: saline with Tween-80) was 109 % of control and the T/C (endpoint: mean survival time, dose: 400.0 mg/kg/injection, schedule: Q04DX003 (ip), vehicle: saline with Tween-80) was 105 % of control.

`S=C=NCCc1ccccc1` was tested, and the T/C (endpoint: mean survival time, dose: 12.5 mg/kg/injection, schedule: Q01DX009 (ip), vehicle: saline with Tween-80) was 343 % of control, the T/C (endpoint: mean survival time, dose: 25.0 mg/kg/injection, schedule: Q01DX009 (ip), vehicle: saline with Tween-80) was 93 % of control and the T/C (endpoint: mean survival time, dose: 50.0 mg/kg/injection, schedule: Q01DX009 (ip), vehicle: saline with Tween-80) was 95 % of control.

In the case of `Cc1nc(N)nc(N)c1-c1ccc(Cl)c(Cl)c1`, the T/C (endpoint: mean survival time, dose: 1.08 mg/kg/injection, schedule: Q01DX009 (ip), vehicle: saline) is reported as 105 % of control, the T/C (endpoint: mean survival time, dose: 1.8 mg/kg/injection, schedule: Q01DX009 (ip), vehicle: saline) is reported as 95 % of control and the T/C (endpoint: mean survival time, dose: 3.0 mg/kg/injection, schedule: Q01DX009 (ip), vehicle: saline) is reported as 98 % of control. For the same compound, the T/C (endpoint: mean survival time, dose: 5.0 mg/kg/injection, schedule: Q01DX009 (ip), vehicle: saline) was 97 % of control, the T/C (endpoint: mean survival time, dose: 8.4 mg/kg/injection, schedule: Q01DX009 (ip), vehicle: saline) was 111 % of control and the T/C (endpoint: mean survival time, dose: 8.4 mg/kg/injection, schedule: Q04DX003 (ip), vehicle: saline) was 104 % of control. For the same compound, the T/C (endpoint: mean survival time, dose: 14.0 mg/kg/injection, schedule: Q04DX003 (ip), vehicle: saline) was 96 % of control, the T/C (endpoint: mean survival time, dose: 23.0 mg/kg/injection, schedule: Q04DX003 (ip), vehicle: saline) was 103 % of control and the T/C (endpoint: mean survival time, dose: 39.0 mg/kg/injection, schedule: Q04DX003 (ip), vehicle: saline) was 93 % of control. For the same compound, the T/C (endpoint: mean survival time, dose: 65.0 mg/kg/injection, schedule: Q04DX003 (ip), vehicle: saline) was 103 % of control, the T/C (endpoint: median survival time, dose: 0.62 mg/kg/injection, schedule: Q01DX009 (ip), vehicle: saline) was 106 % of control and the T/C (endpoint: median survival time, dose: 1.25 mg/kg/injection, schedule: Q01DX009 (ip), vehicle: saline) was 115 % of control. For the same compound, the T/C (endpoint: median survival time, dose: 5.0 mg/kg/injection, schedule: Q01DX009 (ip), vehicle: saline) was 117 % of control and the T/C (endpoint: median survival time, dose: 10.0 mg/kg/injection, schedule: Q01DX009 (ip), vehicle: saline) was 104 % of control.

In the case of `O=C(Nc1ccc(C2=NCCN2)cc1)c1ccc(C(=O)Nc2ccc(C3=NCCN3)cc2)c(Cl)c1`, the T/C (endpoint: mean survival time, dose: 12.0 mg/kg/injection, schedule: Q01DX015 (ip), vehicle: carboxymethylcellulose (CMC)) is reported as 112 % of control, the T/C (endpoint: mean survival time, dose: 12.5 mg/kg/injection, schedule: Q01DX Z (ip), vehicle: carboxymethylcellulose (CMC)) is reported as 114 % of control and the T/C (endpoint: mean survival time, dose: 18.0 mg/kg/injection, schedule: Q01DX015 (ip), vehicle: carboxymethylcellulose (CMC)) is reported as 120 % of control. For the same compound, the T/C (endpoint: mean survival time, dose: 25.0 mg/kg/injection, schedule: Q01DX Z (ip), vehicle: carboxymethylcellulose (CMC)) was 108 % of control, the T/C (endpoint: mean survival time, dose: 27.0 mg/kg/injection, schedule: Q01DX015 (ip), vehicle: carboxymethylcellulose (CMC)) was 118 % of control and the T/C (endpoint: mean survival time, dose: 37.5 mg/kg/injection, schedule: Q01DX Z (ip), vehicle: carboxymethylcellulose (CMC)) was 102 % of control. The T/C (endpoint: mean survival time, dose: 48.0 mg/kg/injection, schedule: Q01DX001 (ip), vehicle: carboxymethylcellulose (CMC)) was 98 % of control, the T/C (endpoint: mean survival time, dose: 48.4 mg/kg/injection, schedule: Q01DX001 (ip), vehicle: carboxymethylcellulose (CMC)) was 102 % of control and the T/C (endpoint: mean survival time, dose: 50.0 mg/kg/injection, schedule: Q01DX Z (ip), vehicle: carboxymethylcellulose (CMC)) was 96 % of control. The T/C (endpoint: mean survival time, dose: 74.0 mg/kg/injection, schedule: Q01DX001 (ip), vehicle: carboxymethylcellulose (CMC)) was 107 % of control and 100 % of control.

`CS(=O)(=O)Nc1ccc(Nc2c3ccccc3nc3cc([N+](=O)[O-])ccc23)cc1` was tested, and the T/C (endpoint: mean survival time, dose: 1.25 mg/kg/injection, schedule: Q01DX009 (ip), vehicle: Klucel (hydroxypropylcellulose) (HPC)) was 91 % of control, the T/C (endpoint: mean survival time, dose: 1.25 mg/kg/injection, schedule: Q01DX009 (sc), vehicle: Klucel (hydroxypropylcellulose) (HPC)) was 106 % of control and the T/C (endpoint: mean survival time, dose: 2.5 mg/kg/injection, schedule: Q01DX009 (ip), vehicle: Klucel (hydroxypropylcellulose) (HPC)) was 87 % of control. For the same compound, the T/C (endpoint: mean survival time, dose: 2.5 mg/kg/injection, schedule: Q01DX009 (sc), vehicle: Klucel (hydroxypropylcellulose) (HPC)) was 97 % of control, the T/C (endpoint: mean survival time, dose: 3.12 mg/kg/injection, schedule: Q01DX001 (ip), vehicle: saline) was 98 % of control and the T/C (endpoint: mean survival time, dose: 5.0 mg/kg/injection, schedule: Q01DX009 (ip), vehicle: Klucel (hydroxypropylcellulose) (HPC)) was 89 % of control. The T/C (endpoint: mean survival time, dose: 5.0 mg/kg/injection, schedule: Q01DX009 (sc), vehicle: Klucel (hydroxypropylcellulose) (HPC)) was 103 % of control, the T/C (endpoint: mean survival time, dose: 6.25 mg/kg/injection, schedule: Q01DX001 (ip), vehicle: saline) was 98 % of control and the T/C (endpoint: mean survival time, dose: 10.0 mg/kg/injection, schedule: Q01DX009 (sc), vehicle: Klucel (hydroxypropylcellulose) (HPC)) was 102 % of control. For the same compound, the T/C (endpoint: mean survival time, dose: 12.5 mg/kg/injection, schedule: Q01DX001 (ip), vehicle: saline) was 101 % of control, the T/C (endpoint: mean survival time, dose: 25.0 mg/kg/injection, schedule: Q01DX001 (ip), vehicle: saline) was 101 % of control and the T/C (endpoint: mean survival time, dose: 50.0 mg/kg/injection, schedule: Q01DX001 (ip), vehicle: saline) was 90 % of control.

With `CN(N=O)C(=O)N[C@@H](C=O)[C@@H](O)[C@H](O)[C@H](O)CO` the T/C (endpoint: mean survival time, dose: 15.0 mg/kg/injection, schedule: Q01DX009 (ip), vehicle: saline) was 105 % of control, the T/C (endpoint: mean survival time, dose: 22.0 mg/kg/injection, schedule: Q01DX009 (ip), vehicle: other) was 98 % of control and the T/C (endpoint: mean survival time, dose: 30.0 mg/kg/injection, schedule: Q01DX005 (ip), vehicle: saline) was 105 % of control. The T/C (endpoint: mean survival time, dose: 30.0 mg/kg/injection, schedule: Q01DX009 (ip), vehicle: saline) was 108 % of control, the T/C (endpoint: mean survival time, dose: 33.0 mg/kg/injection, schedule: Q01DX009 (ip), vehicle: other) was 100 % of control and the T/C (endpoint: mean survival time, dose: 50.0 mg/kg/injection, schedule: Q01DX009 (ip), vehicle: other) was 95 % of control. The T/C (endpoint: mean survival time, dose: 60.0 mg/kg/injection, schedule: Q01DX005 (ip), vehicle: saline) was 101 % of control, the T/C (endpoint: mean survival time, dose: 60.0 mg/kg/injection, schedule: Q01DX009 (ip), vehicle: saline) was 109 % of control and the T/C (endpoint: mean survival time, dose: 75.0 mg/kg/injection, schedule: Q01DX009 (ip), vehicle: other) was 94 % of control. The T/C (endpoint: mean survival time, dose: 113.0 mg/kg/injection, schedule: Q01DX009 (ip), vehicle: other) was 93 % of control, the T/C (endpoint: mean survival time, dose: 120.0 mg/kg/injection, schedule: Q01DX005 (ip), vehicle: saline) was 107 % of control and the T/C (endpoint: mean survival time, dose: 120.0 mg/kg/injection, schedule: Q01DX009 (ip), vehicle: saline) was 113 % of control. The T/C (endpoint: mean survival time, dose: 240.0 mg/kg/injection, schedule: Q01DX005 (ip), vehicle: saline) was 105 % of control.

`NC(Cc1ccc(N(CCCl)CCCl)cc1)C(=O)O` (stereo not drawn) was tested, and the T/C (endpoint: mean survival time, dose: 8.0 mg/kg/injection, schedule: Q01DX001 (ip), vehicle: carboxymethylcellulose (CMC)) was 119 % of control and the T/C (endpoint: mean survival time, dose: 12.0 mg/kg/injection, schedule: Q01DX001 (ip), vehicle: carboxymethylcellulose (CMC)) was 117 % of control.

`N[C@H](C(=O)O)[C@@H]1CC(Cl)=NO1` was tested, and the T/C (endpoint: mean survival time, dose: 1.0 mg/kg/injection, schedule: Q01DX009 (ip), vehicle: saline) was 109 % of control, the T/C (endpoint: mean survival time, dose: 2.0 mg/kg/injection, schedule: Q01DX009 (ip), vehicle: saline) was 114 % of control and the T/C (endpoint: mean survival time, dose: 16.0 mg/kg/injection, schedule: Q01DX009 (ip), vehicle: saline) was 116 % of control. For the same compound, the T/C (endpoint: mean survival time, dose: 32.0 mg/kg/injection, schedule: Q01DX009 (ip), vehicle: saline) was 100 % of control, the T/C (endpoint: median survival time, dose: 4.0 mg/kg/injection, schedule: Q01DX009 (ip), vehicle: saline) was 120 % of control and the T/C (endpoint: median survival time, dose: 8.0 mg/kg/injection, schedule: Q01DX009 (ip), vehicle: saline) was 124 % of control. For the same compound, the T/C (endpoint: median survival time, dose: 32.0 mg/kg/injection, schedule: Q01DX009 (ip), vehicle: saline) was 100 % of control and the T/C (endpoint: median survival time, dose: 64.0 mg/kg/injection, schedule: Q01DX009 (ip), vehicle: saline) was 100 % of control.

In the case of `CN(Cc1cnc2nc(N)nc(N)c2n1)c1c(Cl)cc(C(=O)NC(CCC(=O)O)C(=O)O)cc1Cl` (stereo not drawn), the T/C (endpoint: mean survival time, dose: 285.0 mg/kg/injection, schedule: Q01DX001 (ip), vehicle: carboxymethylcellulose (CMC)) is reported as 91 % of control, the T/C (endpoint: mean survival time, dose: 434.0 mg/kg/injection, schedule: Q01DX001 (ip), vehicle: carboxymethylcellulose (CMC)) is reported as 90 % of control and the T/C (endpoint: mean survival time, dose: 647.0 mg/kg/injection, schedule: Q01DX001 (ip), vehicle: carboxymethylcellulose (CMC)) is reported as 95 % of control.

`C1CN1c1nc(N2CC2)nc(N2CC2)n1` was tested, and the T/C (endpoint: mean survival time, dose: 0.15 mg/kg/injection, schedule: Q01DX Z (ip), vehicle: saline) was 113 % of control, the T/C (endpoint: mean survival time, dose: 0.25 mg/kg/injection, schedule: Q01DX Z (ip), vehicle: saline) was 119 % of control and the T/C (endpoint: mean survival time, dose: 0.5 mg/kg/injection, schedule: Q01DX Z (ip), vehicle: saline) was 160 % of control. For the same compound, the T/C (endpoint: mean survival time, dose: 0.75 mg/kg/injection, schedule: Q01DX Z (ip), vehicle: saline) was 156 % of control, the T/C (endpoint: mean survival time, dose: 1.0 mg/kg/injection, schedule: Q01DX Z (ip), vehicle: saline) was 124 % of control and the T/C (endpoint: mean survival time, dose: 1.5 mg/kg/injection, schedule: Q01DX Z (ip), vehicle: saline) was 97 % of control. The T/C (endpoint: mean survival time, dose: 2.1 mg/kg/injection, schedule: Q01DX001 (ip), vehicle: saline) was 153 % of control and the T/C (endpoint: mean survival time, dose: 3.2 mg/kg/injection, schedule: Q01DX001 (ip), vehicle: saline) was 182 % of control.
